Data: US11414377B2, “Modulator of metabotropic and ionotropic transmembrane receptors and use thereof” (IBD THERAPEUTICS LLC, priority 2018, dated 2022)

How the values were obtained:
[1] = Solubility remark in acute toxicity dosing; format: physicochemical; settings: solvent 0.1% Tween-80 solution in water; 2000 mg/kg dose given in 2 administrations
Procedure: (§1) Compound I was administered to rats and mice intragastrically at a dose of 5000 mg/kg, intraperitoneally—at a dose of 2000 mg/kg. Control groups (female and male objects) were received a solvent (0.1% Tween-80 solution in water).

male and female rats = test: Acute toxicity at single administration, rats; format: in vivo; settings: for Body weight gain / Death of animals: male and female; for Death of animals: 14 days observation
Procedure: The acute toxicity study was performed on 24 male and 24 female rats, and also on 24 male and 24 female mice. Before the administration of the Compound I, the body weight of the animals was recorded, after 1 hour of the administration, the state of the experimental animals was observed. Then, the body weights of rats and mice were recorded daily for 14 days after the administration of the substance, and the examination was carried out to detect the cases of death and abnormality in the state of the animals.
as §1

human NK1R = molecular target: T1, human NK1R (Homo sapiens, UniProt P25103); test: Effect on activity of tachykinin receptor type 1 (intracellular calcium, fluorescence); format: cell-based; settings: U373 cells expressing human NK1R, agonist [Sar9,Met(O2)11]-SP 1 nM, read-out: IC50, antagonist of tachykinin receptor type 1
T1 construct: U373 cells expressing human NK1R were used in the experiment; endogenous in cells; host or cells: U373 cells
T1 sequence (P25103 whole entry): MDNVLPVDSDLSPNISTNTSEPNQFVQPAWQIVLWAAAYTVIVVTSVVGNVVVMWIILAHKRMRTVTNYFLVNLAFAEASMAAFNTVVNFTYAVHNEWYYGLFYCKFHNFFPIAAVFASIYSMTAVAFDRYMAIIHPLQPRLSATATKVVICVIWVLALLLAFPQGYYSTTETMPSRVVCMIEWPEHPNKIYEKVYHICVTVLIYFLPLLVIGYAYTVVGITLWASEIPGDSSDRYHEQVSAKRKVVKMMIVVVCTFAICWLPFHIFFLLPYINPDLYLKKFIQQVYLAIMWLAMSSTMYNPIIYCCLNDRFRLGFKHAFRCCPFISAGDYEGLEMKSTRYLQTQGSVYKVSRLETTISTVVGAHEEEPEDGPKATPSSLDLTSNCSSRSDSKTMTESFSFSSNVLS
Procedure: Compound I was dissolved in DMSO to a concentration of 100 mM; then the stock solution was serially diluted with DMSO. The maximal start concentration of substance is 100 μM. The effect was determined at 8 concentrations of test compound, each concentration was investigated twice. U373 cells expressing human NK1R were used in the experiment, said cells after the preincubation with an agonist [Sar9,Met(O2)11]-SP (1 nM) were incubated with Compound I. The activity of receptors was determined by the intracellular calcium concentration using fluorescence spectroscopy (Glia. 1992; 6(2):89-95).

Question: Which Solubility [1] does the source give for `O=C(Cc1ccc(O)cc1)N[C@@H](Cc1ccccc1)C(=O)NCCc1ccccc1` [Compound I, 2-phenylethylamide N-(p-hydroxyphenylacetyl)phenylalanine] here?
Answer: poor

Question: And the “Differences in the spontaneous behaviour, responses to the caused reactions” value (male and female rats; intragastrically 5000 mg/kg, intraperitoneally 2000 mg/kg)?
Answer: not observed

Question: And the Body weight gain (male and female rats; intragastrically 5000 mg/kg)?
Answer: lag in body weight gain

Question: And the Death of animals (male and female rats; intragastrically 5000 mg/kg)?
Answer: did not cause death of animals

Question: And the Body weight gain (male and female rats; intraperitoneally 2000 mg/kg)?
Answer: lag in body weight gain

Question: What about the Death of animals (male and female rats; intraperitoneally 2000 mg/kg) of the same compound?
Answer: did not cause death of animals

Question: What about the IC50 (human NK1R) of the same compound?
Answer: 59 µM
